Experimental data: article PMC6930567, “NMR Study of the Secondary Structure and Biopharmaceutical Formulation of an Active Branched Antimicrobial Peptide” (Molecules, 2019)
Structures can show the parent of a compound that is named as a salt. Where two headings read alike, the source gives them in different places. Positions of bridges follow the written chain, without caps; N, C: chain ends. Non-standard residues stand in square brackets, D forms with d. Residues, ends and D or L forms follow the SMILES beside them. Chains are numbered I, II in the order given. βAla = NCCC(=O)O

Assays:
[1] = system: CD1 mice; details: cited from earlier work; for signs of acute toxicity in vivo: scored not-observable, mild, severe
Procedure: (§1) Table 4 Signs of acute toxicity in vivo of the three SET-M33 salts. | column: 20 mg/kg; 25 mg/kg || Acute toxicity of SET-M33 chloride was tested in mice and compared with the acetate and TFA counter-ions. Ten animals per group (five males and five females) were injected with two doses of SET-M33 chloride, 20 and 30 mg/kg, known to be below the LD50 [7]. Signs of toxicity were scored as not-observable, mild and severe. SET-M33 chloride and SET-M33 acetate scored 100% not-observable (Table 4), unlike the TFA that scored 100% toxicity at 25 mg/kg, described as 33% severe and 66% mild.

[2] = system: RAW264.7 mouse macrophages; type: cell-based; details: 48 h
Procedure: (§2) T24 human epithelial bladder cells, 16HBE14o- human bronchial epithelial cells and RAW264.7 mouse macrophages were plated at a density of 2.5 × 10^4 cells/well in 96-well microplates. The 16HBE14o- cells were previously incubated with coating solution (88% LHC basal medium, 10% bovine serum albumin, 30 µg/mL bovine collagen type I and 1% human fibronectin). Different concentrations of SET-M33 TFA, acetate and chloride were added 24 h after plating. Cells were grown for 48 h at 37 °C. Their viability was assessed by 3-(4,5-dimethylthiazol-2-yl)2,5-diphenyltetrazolium bromide (MTT) assay. EC50 values were obtained by dose-response variable slope analysis using GraphPad Prism 5.03 software (San Diego, CA, USA).

[3] = system: T24 human bladder epithelial cells; type: cell-based; details: 48 h
Procedure: as §2

[4] = system: 16HBE14o- human bronchial epithelial cells; type: cell-based; details: 48 h
Procedure: as §2

[5] = system: CD1 mice; test: Acute toxicity in mice; type: in vivo, mouse; details: for signs of acute toxicity in vivo: 10/group, monitored 96 h, scored not-observable, mild, severe; for share of animals scored not-observable for signs of toxicity: i.v. single dose, chloride 20 and 30 mg/kg, acetate 25 and 30 mg/kg
Procedure: as §1, with “Acute” for “Table 4 Signs of acute toxicity in vivo of the three SET-M33 salts. | column: 20 mg/kg; 25 mg/kg || Acute”
All animal experiments were conducted under the protocol approved by the Italian Ministry of Health at the Toscana Life Sciences Foundation animal facility in Siena, Italy (authorization n. 34/2016PR). Animals (10 CD1 mice/group, 20–22 g) were injected i.v. with SET-M33 acetate (group 1 and group 2) and SET-M33 chloride (group 3 and group 4), in a single dose. The doses were: group 1, 25 mg/kg SET-M33 acetate; group 2, 30 mg/kg SET-M33 acetate; group 3, 20 mg/kg SET-M33 chloride and group 4, 30 mg/kg SET-M33 chloride. Animals were monitored for 96 h. Signs of toxicity were checked four times a day by visual inspection and were scored as not-observable, mild and severe. Mice were weighed every day from arrival to the last day of the experiment. Animals with clear signs of distress, such as reduced mobility and weight loss greater than 20%, were anesthetized and sacrificed with carbon dioxide or by cervical dislocation.

[6] = system: E. coli TG-1; type: cell-based; details: TG-1, 24 h
Procedure: (§3) Antimicrobial susceptibility was assessed by determining the minimum inhibitory concentrations (MICs) of SET-[…] acetate and SET-[…] chloride against E. coli TG-1 and P. aeruginosa PAO-1, using the broth microdilution technique according to 2017 EUCAST guidelines. The MIC assay measures visible inhibition of bacterial growth after 24 h exposure of bacteria to antibiotic in Mueller-Hinton (MH) broth. Assays were performed in triplicate using a bacterial inoculum of 5 × 10^4 CFU/well in a final volume of 100 μL. The twofold antibiotic concentration ranged from 0.1 μM to 12 μM for both peptides. MICs were read after 24 h of incubation at 35 °C.

[7] = system: P. aeruginosa PAO-1; type: cell-based; details: PAO-1, 24 h
Procedure: as §3

For `CC[C@H](C)[C@H](NC(=O)[C@H](CCCCN)NC(=O)[C@@H](N)CCCCN)C(=O)N[C@@H](CCCNC(=N)N)C(=O)N[C@H](C(=O)N[C@@H](CCCNC(=N)N)C(=O)N[C@@H](CC(C)C)C(=O)N[C@@H](CO)C(=O)N[C@@H](C)C(=O)NCCCC[C@H](NC(=O)[C@H](C)NC(=O)[C@H](CO)NC(=O)[C@H](CC(C)C)NC(=O)[C@H](CCCNC(=N)N)NC(=O)[C@@H](NC(=O)[C@H](CCCNC(=N)N)NC(=O)[C@@H](NC(=O)[C@H](CCCCN)NC(=O)[C@@H](N)CCCCN)[C@@H](C)CC)C(C)C)C(=O)NCCCC[C@H](NC(=O)[C@H](CCCCNC(=O)[C@H](C)NC(=O)[C@H](CO)NC(=O)[C@H](CC(C)C)NC(=O)[C@H](CCCNC(=N)N)NC(=O)[C@@H](NC(=O)[C@H](CCCNC(=N)N)NC(=O)[C@@H](NC(=O)[C@H](CCCCN)NC(=O)[C@@H](N)CCCCN)[C@@H](C)CC)C(C)C)NC(=O)[C@H](C)NC(=O)[C@H](CO)NC(=O)[C@H](CC(C)C)NC(=O)[C@H](CCCNC(=N)N)NC(=O)[C@@H](NC(=O)[C@H](CCCNC(=N)N)NC(=O)[C@@H](NC(=O)[C@H](CCCCN)NC(=O)[C@@H](N)CCCCN)[C@@H](C)CC)C(C)C)C(=O)NCCC(=O)O)C(C)C` [SET-M33 TFA] (I: H-KKIRVRLSAKK[βAla]-OH / II: H-KKIRVRLSAK / III: H-KKIRVRLSA / IV: H-KKIRVRLSA; amide I:10-IV:C, I:11-II:C, II:10-III:C), the “signs of acute toxicity in vivo” value ([1]; 25 mg/kg) is listed as “mild to severe”, the “share of animals with mild signs of toxicity” value ([1]; 25 mg/kg) is listed as 66% and the “share of animals with severe signs of toxicity” value ([1]; 25 mg/kg) is listed as 33%. For the same molecule, the “toxicity score (share of animals with signs of toxicity)” value ([1]; 25 mg/kg) was 100%, the EC50 [2] was 3.85 µM and the EC50 [3] was 13.6 µM. The EC50 [4] was 11.1 µM.

For `CC[C@H](C)[C@H](NC(=O)[C@H](CCCCN)NC(=O)[C@@H](N)CCCCN)C(=O)N[C@@H](CCCNC(=N)N)C(=O)N[C@H](C(=O)N[C@@H](CCCNC(=N)N)C(=O)N[C@@H](CC(C)C)C(=O)N[C@@H](CO)C(=O)N[C@@H](C)C(=O)NCCCC[C@H](NC(=O)[C@H](C)NC(=O)[C@H](CO)NC(=O)[C@H](CC(C)C)NC(=O)[C@H](CCCNC(=N)N)NC(=O)[C@@H](NC(=O)[C@H](CCCNC(=N)N)NC(=O)[C@@H](NC(=O)[C@H](CCCCN)NC(=O)[C@@H](N)CCCCN)[C@@H](C)CC)C(C)C)C(=O)NCCCC[C@H](NC(=O)[C@H](CCCCNC(=O)[C@H](C)NC(=O)[C@H](CO)NC(=O)[C@H](CC(C)C)NC(=O)[C@H](CCCNC(=N)N)NC(=O)[C@@H](NC(=O)[C@H](CCCNC(=N)N)NC(=O)[C@@H](NC(=O)[C@H](CCCCN)NC(=O)[C@@H](N)CCCCN)[C@@H](C)CC)C(C)C)NC(=O)[C@H](C)NC(=O)[C@H](CO)NC(=O)[C@H](CC(C)C)NC(=O)[C@H](CCCNC(=N)N)NC(=O)[C@@H](NC(=O)[C@H](CCCNC(=N)N)NC(=O)[C@@H](NC(=O)[C@H](CCCCN)NC(=O)[C@@H](N)CCCCN)[C@@H](C)CC)C(C)C)C(=O)NCCC(=O)O)C(C)C` [SET-M33 acetate] (I: H-KKIRVRLSAKK[βAla]-OH / II: H-KKIRVRLSAK / III: H-KKIRVRLSA / IV: H-KKIRVRLSA; amide I:10-IV:C, I:11-II:C, II:10-III:C), the “signs of acute toxicity in vivo” value ([1]; 20 mg/kg) is listed as “not-observable [6]”, the “signs of acute toxicity in vivo” value ([5]; 25 mg/kg i.v. single dose) is listed as “not-observable” and the “signs of acute toxicity in vivo” value ([5]; 30 mg/kg i.v. single dose) is listed as “not-observable”. For the same molecule, the “share of animals scored not-observable for signs of toxicity” value [5] was 100%, the MIC [6] was 1.5 µM and the MIC [7] was 3 µM. For the same molecule, the EC50 [2] was 5.1 µM, the EC50 [3] was 12.4 µM and the EC50 [4] was 9.62 µM.

In the case of `CC[C@H](C)[C@H](NC(=O)[C@H](CCCCN)NC(=O)[C@@H](N)CCCCN)C(=O)N[C@@H](CCCNC(=N)N)C(=O)N[C@H](C(=O)N[C@@H](CCCNC(=N)N)C(=O)N[C@@H](CC(C)C)C(=O)N[C@@H](CO)C(=O)N[C@@H](C)C(=O)NCCCC[C@H](NC(=O)[C@H](C)NC(=O)[C@H](CO)NC(=O)[C@H](CC(C)C)NC(=O)[C@H](CCCNC(=N)N)NC(=O)[C@@H](NC(=O)[C@H](CCCNC(=N)N)NC(=O)[C@@H](NC(=O)[C@H](CCCCN)NC(=O)[C@@H](N)CCCCN)[C@@H](C)CC)C(C)C)C(=O)NCCCC[C@H](NC(=O)[C@H](CCCCNC(=O)[C@H](C)NC(=O)[C@H](CO)NC(=O)[C@H](CC(C)C)NC(=O)[C@H](CCCNC(=N)N)NC(=O)[C@@H](NC(=O)[C@H](CCCNC(=N)N)NC(=O)[C@@H](NC(=O)[C@H](CCCCN)NC(=O)[C@@H](N)CCCCN)[C@@H](C)CC)C(C)C)NC(=O)[C@H](C)NC(=O)[C@H](CO)NC(=O)[C@H](CC(C)C)NC(=O)[C@H](CCCNC(=N)N)NC(=O)[C@@H](NC(=O)[C@H](CCCNC(=N)N)NC(=O)[C@@H](NC(=O)[C@H](CCCCN)NC(=O)[C@@H](N)CCCCN)[C@@H](C)CC)C(C)C)C(=O)NCCC(=O)O)C(C)C` [SET-M33 chloride] (I: H-KKIRVRLSAKK[βAla]-OH / II: H-KKIRVRLSAK / III: H-KKIRVRLSA / IV: H-KKIRVRLSA; amide I:10-IV:C, I:11-II:C, II:10-III:C), the “signs of acute toxicity in vivo” value ([5]; 20 mg/kg i.v. single dose) is reported as “not-observable”, the “signs of acute toxicity in vivo” value ([5]; 30 mg/kg i.v. single dose) is reported as “not-observable” and the “share of animals scored not-observable for signs of toxicity” value [5] is reported as 100%. It also gave an MIC [6] of 1.5 µM, an MIC [7] of 1.5 µM and an EC50 [2] of 6.12 µM. The EC50 [3] was 22.6 µM and the EC50 [4] was 10.3 µM.
